Kd data for two compounds are collected here from PMC10442912 (2023).

Assay [1] has as its system CAP1 (DNA, aptamer) CGACATAGAGGATCCATCTTGGGGTGTGTAGTGTGTCG
The assay is described as follows: ThT fluorescence displacement. As to conditions: 10 mM Mg2+; 50 mM Tris-HCl pH 7.8; 1 μM aptamer, 0.5 μM ThT displaced.

In assay [2] the test system is CAP3 (DNA, aptamer) CGACCTAGTGTCCATCGTTCAGTTCCGATTTCTGGTCG
Briefly: ThT fluorescence displacement. As to conditions: 10 mM Mg2+; 50 mM Tris-HCl pH 7.8; 1 μM aptamer, 0.5 μM ThT displaced.

The subject of assay [3] is CAP1 (DNA, aptamer) CGACATAGAGGATCCATCTTGGGGTGTGTAGTGTGTCG
Briefly: ITC. The conditions noted are these: 300 mM Na+, 5 mM K+, 10 mM Mg2+; 50 mM Tris-HCl pH 7.8, 25 °C, preannealed.

For assay [4] the test system is unchanged. Briefly: fluorescence titration. The conditions noted are these: 10 mM Mg2+; 20 mM Tris-HCl pH 7.8; CAP1 titrated into 2.5 μM ThT.

Each structure is given as a SMILES string.

Regarding `O=C(N[C@H](CO)[C@H](O)c1ccc([N+](=O)[O-])cc1)C(Cl)Cl`, the Kd was 4.2 µM in assay [1], 46 µM in assay [2] and 9.8 ± 0.5 µM in assay [3].
Compound `Cc1ccc2c(c1)sc(-c1ccc(N(C)C)cc1)[n+]2C` registered a Kd in assay [4] of 2.3 µM. This counts as single-digit micromolar.
